As a reminder, the Km is the concentration of substrate that gives half-maximal velocity.

Data on 2 molecules can be found in US20260207570A1, “OPTIMIZED DOSING OF LERIGLITAZONE” (MINORYX THERAPEUTICS S.L., priority 2022, published 2026).

Data set [1] is described as follows: Phase 1 safety and tolerability (treatment-emergent adverse events). The data set is classed as in vivo, human. How it is done: Study design: A phase 1, randomized, double blind, placebo-controlled, single-center clinical study in 33 male healthy volunteers (HV) (19-54 years, 63.2-95.7 Kg) was conducted with leriglitazone HCl and divided in two parts: a single ascending dose (SAD) with three dose levels (30, 90 and 270 mg) in fasted conditions, followed with two dose levels (90 and 270 mg) in fed conditions; a multiple ascending dose (MAD) with a double-blind, parallel-design with two dose levels (135 and 270 mg) for 8 days and a separate cohort of subjects in an open-label parallel design with two dose levels (135 and 270 mg) including cerebrospinal fluid (CSF) collection on day 8. In the fasted conditions a fasting period of at least 4 hours was required before obtaining plasma samples. The food effect (FE) was assessed by comparing fasted with fed conditions (dosing after a high-fat breakfast per FDA definition with a calculated caloric content of 918 kcal). In the MAD part (fed) the medication was taken before a normal breakfast. Leriglitazone HCl was supplied by ChemConnection and an oral suspension of leriglitazone (20% w/v kleptose, 2% ethanol in 100 mM phosphate buffer pH=7.8) at 6 mg/ml was used in the study. Safety: Safety and tolerability assessments consisted of adverse events (AEs), clinical laboratory, vital signs, 12-lead electrocardiogram (ECG), and physical examination.

Substrate in data set [2]: CC(O)c1ccc(CCOc2ccc(CC3SC(=O)NC3=O)cc2)nc1
The data set is described as follows: Metabolism kinetics with recombinant CYP2C8. In kind it is in vitro ADME, human. The text has this:
CYP2C8 and CYP3A4 were identified in vitro as the major contributing enzymes of leriglitazone with CYP2C8 mostly responsible for the formation of the main metabolite M3. Kinetic parameters of human CYP2C8 and CYP3A4 mediated metabolism of leriglitazone were studied in in vitro studies using recombinant CYP3A4 and CYP2C8 enzymes (ADMESCOPE, Finland). […] As the disappearance of leriglitazone was very slow especially at high initial concentrations, the accuracy of the fit was not as good as based on M3 formation. […] Thus, it was not possible to fit the kinetic parameters Km and Vmax.

Setting [3] is: phase 1, healthy male volunteers.
Where [4] appears, read: other: recombinant CYP2C8, based on M3 formation.
Setting [5] is: other: recombinant CYP2C8, based on leriglitazone depletion.

Turning to `CC(O)c1ccc(CCOc2ccc(CC3SC(=O)NC3=O)cc2)nc1.Cl` (centres unmarked) [leriglitazone HCl, 5-[[4-[2-[5-(1-hydroxyethyl)pyridin-2-yl]ethoxy]phenyl]methyl]-1,3-thiazolidine-2,4-dione hydrochloride], the “clinical laboratory evaluations, vital signs, ECGs and physical examinations” value in data set [1] (phase 1, healthy male subjects) is “No clinically significant changes from baseline”. Moreover, in data set [1] (setting [3]), the “serious AEs” value is “no serious AEs reported” and the “severity of treatment-emergent adverse events” value is given as “of mild severity”. Besides, the safety and tolerability result in data set [1] (single and multiple doses, healthy male subjects) is “safe and well tolerated”.

B1: human CYP2C8 (Homo sapiens) (protein)
chain: MEPFVVLVLCLSFMLLFSLWRQSCRRRKLPPGPTPLPIIGNMLQIDVKDICKSFTNFSKVYGPVFTVYFGMNPIVVFHGYEAVKEALIDNGEEFSGRGNSPISQRITKGLGIISSNGKRWKEIRRFSLTTLRNFGMGKRSIEDRVQEEAHCLVEELRKTKASPCDPTFILGCAPCNVICSVVFQKRFDYKDQNFLTLMKRFNENFRILNSPWIQVCNNFPLLIDCFPGTHNKVLKNVALTRSYIREKVKEHQASLDVNNPRDFIDCFLIKMEQEKDNQKSEFNIENLVGTVADLFVAGTETTSTTLRYGLLLLLKHPEVTAKVQEEIDHVIGRHRSPCMQDRSHMPYTDAVVHEIQRYSDLVPTGVPHAVTTDTKFRNYLIPKGTTIMALLTSVLHDDKEFPNPNIFDPGHFLDKNGNFKKSDYFMPFSAGKRICAGEGLARMELFLFLTTILQNFNLKSVDDLKNLNTTAVTKGIVSLPPSYQICFIPV
notes: purchased ADMESCOPE, Finland
Turning to B1, in data set [2] (setting [4]), the Michaelis-Menten constant (Km) was found to be 34.0 µM and the kcat came out at 2.27 pmol/min/pmol CYP. Moreover, in data set [2] (setting [5]), the Michaelis-Menten constant (Km) stood at 13.7 µM and the kcat was 1.60 pmol/min/pmol CYP.
